Measured values from paper PMC7253423, “Quassinoid analogs with enhanced efficacy for treatment of hematologic malignancies target the PI3Kγ isoform” (Communications Biology, 2020).
Where “and” joins values, the source holds several entries; their conditions need not be identical. Identical values can stand only once.

What was measured:
[1] = system: Raji cells; experiment: Cell viability assay (CellTiter-Glo luminescence); format: cell-based, human; conditions: Homo sapiens; for IC50: analogs, 72 h, Fig. 5c, read-out: IC50
Description: (§1) 5000 cells as indicated were cultured in 96-well plate with 100 μl of media. […] After treatment, the cells were incubated with 100 μl buffer for 10 min at room temperature following the instructions of CellTiter-Glo kit (Promega, Madison, WI). Luminescence was detected using a multi-mode reader Cytation 5 (BioTek, Winooski, VT). […] Two independent experiments done in duplicates were performed.

[2] = system: SU-DHL-4 cells; experiment: Cell viability assay (CellTiter-Glo luminescence); format: cell-based, human; conditions: Homo sapiens, SU-DHL-4, 144 h
Description: as §1

[3] = system: MOLM14 cells; experiment: Cell viability assay (CellTiter-Glo luminescence); format: cell-based; conditions: Homo sapiens
Description: as §1

[4] = Cytotoxicity, cell viability assay in normal cells; format: cell-based, human; conditions: human, relative cell viability (Fig 6a), replicates
From the text: (§2) Human peripheral blood mononuclear cells (PBMCs), normal T-cells and B-cells were provided by the University of Pennsylvania Human Immunology Core (HIC), and Patient-derived xenografts (PDXs) were obtained from Fox Chase Cancer Center (FCCC). These samples were from different unidentified and healthy donors with written, informed consent. All the procedures were approved by the Institutional Review Board (IRB) and conducted according to the declarations of Helsinki protocols.
as §1

[5] = Cytotoxicity, cell viability assay in normal cells; format: cell-based; conditions: human, replicates
From the text: as §2, §1

[6] = system: hematologic malignancies derived cell lines; experiment: Cell viability assay, panel of hematologic malignancy derived cell lines; format: cell-based, human; conditions: 100 nM, 72 h, lymphoma, leukemia and multiple myeloma cell lines (13 cell lines for analogs)
Description: 5000 cells as indicated were cultured in 96-well plate with 100 μl of media. On the next day, Brusatol or associated analogs were added once to the cells without media change. After treatment, the cells were incubated with 100 μl buffer for 10 min at room temperature following the instructions of CellTiter-Glo kit (Promega, Madison, WI). Luminescence was detected using a multi-mode reader Cytation 5 (BioTek, Winooski, VT). […] Two independent experiments done in duplicates were performed.

[7] = system: Raji cells; experiment: Western blot of PI3K/AKT signaling proteins; format: cell-based, human; conditions: Raji, 0, 50 nM, 100 nM; 0, 12 h, 24 h
Description: Western blot analyses were performed as previously described. Briefly, total cell lysates were separated by SDS-PAGE gel and transferred to nitrocellulose membrane. The membranes were blocked with 5% non-fat milk, probed with specific antibodies, and visualized using the Odyssey scanner (LiCor Inc., Lincoln, NE).

[8] = system: MOLM14 xenografts; experiment: In vivo tumorigenic assay using xenografts, tumor size; parameters: species or system NOD/SCID mice; key to tumor size (Fig 5d&5e), individual mice: tumor volume in mm^3, calculated as (a × b × b)/2; conditions: for tumor size (Fig 5d&5e), individual mice: MOLM14 xenograft
Description: (§3) Six-week-old male NOD.CB17-Prkdc^scid/J (NOD/SCID) mice (Jackson Labs, Bar Harbor, ME, USA) were used as the human-in-mouse xeno-transplantation model. MOLM14 cells (1 × 10^7 cells) were injected into the subcutaneous space on the left flank of the mice. […] Body weight and tumor size were monitored before every injection. After treatment for 2 weeks, the mice were euthanized by CO2 inhalation and the tumors were carefully excised. The tumor volume (mm^3) was measured and calculated using the formula (a × b × b)/2 (a, the largest diameter of two measurements; b, the smallest diameter of two measurements).

[9] = In vivo toxicity test, survival rate; parameters: species or system NOD/SCID mice
Description: The survival rate was recorded to monitor the tolerance of the compounds in these mice.

[10] = system: MOLM14 xenografts; experiment: mRNA expression in xenograft tumors in vivo; parameters: species or system NOD/SCID mice; conditions: xenograft tumors of treated mice
Description: Real-time PCR experiments were performed as previously described. The experiments were performed in triplicate.
as §3

[11] = system: PBMC; experiment: Cytotoxicity, cell viability assay in normal cells; format: cell-based, human; conditions: Fig 5c
From the text: as §2, §1

[12] = Body weight of xenograft mice; format: in vivo, NOD/SCID mice; conditions: individual mice, Fig S3i, in g (unit assumed)
Description: as §3

[13] = relative cell viability (Fig 6b)
[14] = relative cell viability (Fig 6c)

Compound: COC(=O)C12OCC34C(CC5C(C)=C(OC(=O)CC(C)N)C(=O)CC5(C)C3C(O)C1O)OC(=O)C(OC(=O)C=C(C)C)C24 (stereo not drawn) [#26]
- IC50 [1]: 37.6 nM
- viability at 0.00244141 µM ([1]; read-out: relative cell viability (Fig 6f), replicates, Raji, Con. 0.00244141 μM, fraction of 0 μM control): 105%
- viability at 0.0390625 µM ([1]; read-out: relative cell viability (Fig 6f), replicates, Raji, Con. 0.0390625 μM, fraction of 0 μM control): 35%
- viability at 0.15625 µM ([1]; read-out: relative cell viability (Fig 6f), replicates, Raji, Con. 0.15625 μM, fraction of 0 μM control): 16.4%
- viability at 0.625 µM ([1]; read-out: relative cell viability (Fig 6f), replicates, Raji, Con. 0.625 μM, fraction of 0 μM control): 7.06%
- viability at 10 µM ([1]; read-out: relative cell viability (Fig 6f), replicates, Raji, Con. 10 μM, fraction of 0 μM control): 4.98%
- viability at 0.00244141 µM ([2]; read-out: relative cell viability (Fig 6d), replicates, SU-DHL-4, Con. 0.00244141 μM, fraction of 0 μM control): 125%
- viability at 0.0390625 µM ([2]; read-out: relative cell viability (Fig 6d), replicates, SU-DHL-4, Con. 0.0390625 μM, fraction of 0 μM control): 36.6%
- viability at 0.15625 µM ([2]; read-out: relative cell viability (Fig 6d), replicates, SU-DHL-4, Con. 0.15625 μM, fraction of 0 μM control): 18.6%
- viability at 0.625 µM ([2]; read-out: relative cell viability (Fig 6d), replicates, SU-DHL-4, Con. 0.625 μM, fraction of 0 μM control): 9.14%
- viability at 10 µM ([2]; read-out: relative cell viability (Fig 6d), replicates, SU-DHL-4, Con. 10 μM, fraction of 0 μM control): 6.62%
- viability at 0.0390625 µM ([3]; MOLM-14, read-out: relative cell viability (Fig 6e), replicates, MOLM14, Con. 0.0390625 μM, fraction of 0 μM control): 12.5%
- viability at 0.15625 µM ([3]; MOLM-14, read-out: relative cell viability (Fig 6e), replicates, MOLM14, Con. 0.15625 μM, fraction of 0 μM control): 7.37%
- viability at 0.625 µM ([3]; MOLM-14, read-out: relative cell viability (Fig 6e), replicates, MOLM14, Con. 0.625 μM, fraction of 0 μM control): 5.55%
- viability at 10 µM ([3]; MOLM-14, read-out: relative cell viability (Fig 6e), replicates, MOLM14, Con. 10 μM, fraction of 0 μM control): 4.05%
- viability at 0.000244141 μM [4]: 103%
- viability at 0.00390625 μM [4]: 85%
- viability at 0.015625 μM [4]: 83.1%
- viability at 0.0625 μM [4]: 80.7%
- viability at 1 μM [4]: 61.8%
- viability at 0.000244141 μM [5, 13]: 96.2%
- viability at 0.00390625 μM [5, 13]: 86%
- viability at 0.015625 μM [5, 13]: 81.6%
- viability at 0.0625 μM [5, 13]: 74.5%
- viability at 1 μM [5, 13]: 82.6%
- viability at 0.000244141 μM [5, 14]: 111%
- viability at 0.00390625 μM [5, 14]: 112%
- viability at 0.015625 μM [5, 14]: 115%
- viability at 1 μM [5, 14]: 93.8%
- inhibition of cell viability in panel of cell lines [6]: significantly inhibit
- suppression of AKT1, GSK3, and mTOR levels [7]: largely similar to Brusatol
- tumor size, inhibitory response ([8]; 2 mg/kg intraperitoneally three times per week, 2 weeks, vs PBS control): strong and rapid inhibitory response
- tumor size (Fig 5d&5e), individual mice ([8]; 0d): 50.8503 and 81.4689 and 79.571 and 83.4481 and 51.3256 and 101.436
- tumor size (Fig 5d&5e), individual mice ([8]; 2d): 106.443 and 103.871 and 87.5139 and 68.1449 and 136.175 and 126.294
- tumor size (Fig 5d&5e), individual mice ([8]; 4d): 67.7106 and 172.977 and 64.3385 and 73.9417 and 166.255 and 100.157
- tumor size (Fig 5d&5e), individual mice ([8]; 6d): 174.013 and 301.003 and 181.944 and 99.2269 and 96.1716 and 48.5716
- tumor size (Fig 5d&5e), individual mice ([8]; 8d): 185.825 and 124.577 and 101.125 and 181.307 and 468.229 and 312.088
- tumor size (Fig 5d&5e), individual mice ([8]; 10d): 259.199 and 230.595 and 161.819 and 478.339 and 646.864 and 395.944
- tumor size (Fig 5d&5e), individual mice ([8]; 12d): 359.944 and 415.708 and 136.428 and 853.399 and 887.802 and 629.337
- toxicity in vivo (survival) ([9]; 10 mg/kg intraperitoneally every other day, monitored 24 days, 4 mice per group): did not show any obvious signs of toxicity
- survival event status per mouse (Fig 6i; 1 = event/death, 0 = censored) ([9]; 10mg/kg, Days Post-treatment 24): 0
- PIK3CG and GSK3B mRNA expression in vivo [10]: inhibited

Compound: COC(=O)C12OCC34C(CC5C(C)=C(OC(=O)C6CCCN6)C(=O)CC5(C)C3C(O)C1O)OC(=O)C(OC(=O)C=C(C)C)C24 (stereo not drawn) [#31]
- IC50 [1]: 36.5 nM
- Cell viability, raw luminescence reading ([11]; Con. 0.01 μM): 21395 and 22004
- Cell viability, raw luminescence reading ([11]; Con. 0.039 μM): 12976 and 10747
- Cell viability, raw luminescence reading ([11]; Con. 0.156 μM): 7357 and 6947
- Cell viability, raw luminescence reading ([11]; Con. 0.625 μM): 8946 and 8046
- Cell viability, raw luminescence reading ([11]; Con. 10 μM): 8102 and 7279
- inhibition of cell viability in panel of cell lines [6]: significantly inhibit
- tumor size (Fig 5d&5e), individual mice ([8]; 0d): 74.2529 and 62.0281 and 101.973 and 60.5009 and 91.8956 and 82.6996
- tumor size (Fig 5d&5e), individual mice ([8]; 2d): 107.191 and 120.034 and 71.2216 and 100.836 and 98.4479 and 88.2667
- tumor size (Fig 5d&5e), individual mice ([8]; 4d): 99.5578 and 195.79 and 71.7513 and 67.0262 and 52.5262 and 97.4505
- tumor size (Fig 5d&5e), individual mice ([8]; 6d): 95.2698 and 78.8527 and 143.077 and 70.9567 and 158.17 and 228.179
- tumor size (Fig 5d&5e), individual mice ([8]; 8d): 324.747 and 668.944 and 318.873 and 96.919 and 128.11 and 346.937
- tumor size (Fig 5d&5e), individual mice ([8]; 10d): 458.137 and 927.585 and 502.969 and 200.67 and 236.721 and 666.334
- tumor size (Fig 5d&5e), individual mice ([8]; 12d): 959.947 and 1557.75 and 485.372 and 249.92 and 359.5 and 1074.17
- Body weight ([12]; 0d): 25.68 and 24.55 and 25.16 and 23.48
- Body weight ([12]; 2d): 27.27 and 26.58 and 25.38 and 25.93 and 25.43 and 23.7
- Body weight ([12]; 4d): 26.97 and 26.67 and 25.81 and 25.44 and 25.69
- Body weight ([12]; 6d): 27.97 and 26.96 and 26.09
- Body weight ([12]; 8d): 28.38 and 27.82 and 26.73 and 25.66
- Body weight ([12]; 10d): 28.24 and 27.47 and 25.9 and 26.82 and 26.06
- Body weight ([12]; 12d): 29.56 and 29.11 and 26.31 and 27.31
